The source of these data is PubChem BioAssay AID504313 (Emory University Molecular Libraries Screening Center, 2011).

Structures are written as SMILES. Activity calls are given as the source filed them. No rule for the calls is given here.

In this experiment the target is X-box-binding protein 1 (Homo sapiens) (UniProt P17861). Kind of experiment: inhibitors of XBP1 reporter signal, dose response, counter-screen, cell-based (AID 504313).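 Also: CHO cells carrying an XBP1 reporter stimulated with tunicamycin; potency is for inhibition of the tunicamycin-induced reporter signal.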 As to conditions: XBP1 reporter cell assay, percent of control.
As to `CC(C)Oc1cc(NC(=O)CS(=O)CC(=O)Nc2cccc(C(F)(F)F)c2)c(Cl)cc1Cl` (centres undefined), the IC50 entry is “inactive”.

For the compound `O=S(=O)(Nc1cc(Sc2cccc3cccnc23)c(O)c2ccccc12)c1ccc(F)cc1`, the IC50 is 4.63 µM.

`CCOC(=O)Cc1csc(NC(=O)NC2(C(F)(F)F)Oc3cc(Cl)c(Cl)cc3O2)n1`: the IC50 result was “inactive”.

Turning to `Cc1cccc(/C=N/Nc2ccc3ccccc3n2)c1`, the IC50 result was “inactive”. On to `Cn1c(=O)c([N+](=O)[O-])c(Cl)c2ccccc21`, for which the IC50 entry was “inactive”. The same measure for `CCCN1C=CC(=C2C(=O)c3ccccc3C2=O)C=C1`: “inactive”; for `Cn1c(=O)[nH]c(=O)c2[nH]c(N(Cc3ccccc3)Cc3ccccc3)nc21`: > 10 µM (inactive). With `CCCOc1ccccc1C1CC(=O)NC(C)=C1C(=O)OCC(C)C` (centres undefined), the IC50 result was “inactive”. On to `O=C(Nc1ccccc1Cl)c1ccccc1Oc1ccc(C(F)(F)F)cc1[N+](=O)[O-]`, for which the IC50 result was “inactive”.

Take `OCCCNc1nccc(-c2cc(Nc3cccc(Cl)c3)ncn2)n1`: the IC50 is 0.3 µM. On to `CN(C)c1ccc(/C=C2\SC(=O)N(CCc3nnc(N)s3)C2=O)cc1`, for which the IC50 entry was “inactive”. For the compound `CCCCCCN1C=CC(=C2C(=O)c3ccccc3C2=O)C=C1`, the IC50 entry is “inactive”. Regarding `Cc1ccc(N=C2SC(C(=O)Nc3ccc(OC(F)(F)F)cc3)C(N)=C2C(=O)Nc2c(C)cc(C)cc2C)cc1` (centres undefined), the IC50 is > 10 µM (inactive). The same measure for `O=c1c(Cl)nc2cc(Cl)ccc2n1CCNc1ncc(C(F)(F)F)cc1Cl`: 4.7 µM; for `Fc1c(F)c(C(F)(F)F)c(F)c(F)c1N/N=C\c1cccs1`: 4.26 µM. With `CC(C)(C)C(=O)NC(=S)NNC(=O)C(c1ccccc1)c1ccccc1`, the IC50 was > 10 µM (inactive). In the case of `CCOC(=O)c1c(/N=C/c2c(O)n(-c3cccc(C)c3)c(=O)[nH]c2=O)sc2c1CCCC2`, the IC50 is 0.53 µM. The same measure for `COc1ccc(-c2nc(NC(=O)Cn3ccc(C(F)(F)F)n3)sc2C)cc1`: > 10 µM (inactive). To `COC(=O)Oc1ccc(/C=N/NC(=O)CSCc2ccccc2Br)cc1OC` belongs > 10 µM (inactive). The same measure for `Cc1ccc2nc(-c3cc(-c4ccccc4)no3)cn2c1`: > 10 µM (inactive).

As for `Cc1cc(Br)c2c(c1)/C(=C/C(=O)c1cccs1)C(=O)N2`, the IC50 is > 10 µM (inactive).

As for `Cc1nn(-c2ccccc2)c(Cl)c1CN(C(=O)CCl)c1ccc(Cl)cc1`, the IC50 was 3.3 µM. With `S=c1[nH]nc(C2CCCCC2)n1/N=C/C=C/c1ccccc1`, the IC50 is > 10 µM (inactive). To `CCOC(=O)c1cc(-c2ccccc2)nc2c1c(C)nn2-c1ccccn1` belongs > 10 µM (inactive); to `COc1c(CC=C(C)C)cc(C2CC(=O)c3c(O)cc(O)cc3O2)cc1CC=C(C)C` (centres undefined), “inactive”; to `Cc1ccc(Nc2nc(N)c([N+](=O)[O-])c(N3CCC(C)CC3)n2)cc1C`, “inactive”. The same measure for `O=C(OCn1ncc(Cl)c(Cl)c1=O)c1ccc(C(F)(F)F)cc1`: > 10 µM (inactive). The same measure for `COc1ccc(CC2(CO)CCN(CC3=Cc4cc(Cl)ccc4OC3)CC2)cc1`: 2.67 µM; for `O=C(Nc1cccc(-c2nc3ncccc3o2)c1)c1sc2ccccc2c1Cl`: > 10 µM (inactive); for `Clc1ccc2c(N/N=C/c3ccc(Br)cc3)ccnc2c1`: > 10 µM (inactive). `C=CCc1cccc(/C=N/NC(=O)CCCNc2ccc(C)cc2)c1O`: the IC50 result was “inactive”.

As for `O=S(=O)(C/C(=C/CO)S(=O)(=O)c1ccccc1)c1ccccc1`, the IC50 was 3.44 µM. In the case of `CC(C)C[C@H](NC(=O)c1nc[nH]c1C(=O)NCC(=O)OC(C)(C)C)C(=O)OCc1ccccc1`, the IC50 result is “inactive”. The same measure for `CCn1c(=O)c(C(=O)Nc2nc3ccccc3[nH]2)c(O)c2ccccc21`: “inactive”; for `CCCCCCCCCS(=O)(=O)N/N=C/c1cccc([N+](=O)[O-])c1`: “inactive”. As for `CC1=C(C)/C(=N\OS(=O)(=O)c2ccccc2)C=CC1=O`, the IC50 was 2.89 µM.

As to `CC(C)(C)OC(=O)N[C@@H](Cc1ccccc1)c1nnc(S(=O)(=O)Cc2ccccc2)o1`, the IC50 result is “inactive”. Regarding `CCc1ccc(C(=O)/C=C/c2ccc([N+](=O)[O-])o2)cc1`, the IC50 is > 10 µM (inactive). Turning to `Cc1cccc(N2CCN(C(=O)CS(=O)(=O)Cc3nc(-c4ccccc4F)oc3C)CC2C)c1` (centres undefined), the IC50 is > 10 µM (inactive). With `Cc1cc(/C=c2/sc3nc4ccccc4n3c2=O)c(C)n1-c1ccccn1`, the IC50 was < 0.16 µM. To `O=S(=O)(Nc1cccc2c1CCCC2)c1cccc(C(F)(F)F)c1` belongs “inactive”. Consider `COc1ccc(C(=O)NC(=O)Nc2cc(C)ccn2)cc1`, for which the IC50 result is “inactive”. The same measure for `Cc1ccccc1Oc1cc(-n2ncc(Cl)c(Cl)c2=O)ncn1`: 1.75 µM; for `Cc1ccc(C(=O)Nc2cnc3ccccc3c2)cc1`: 4.09 µM; for `Cc1nc(Nc2nc(CSc3nc4ccccc4[nH]3)cc(=O)[nH]2)nc2ccccc12`: > 10 µM (inactive). In the case of `CCCCc1nc2ccccc2c(=O)n1NC(=O)c1c(O)c2ccccc2n(C)c1=O`, the IC50 is > 10 µM (inactive). For the compound `CCOC(=O)/C=C/S(=O)(=O)c1ccc(NC(C)=O)cc1`, the IC50 entry was “inactive”. To `O=C(Cc1ccccc1)Nc1cccc(N2C(=O)C=CC2=O)c1` belongs “inactive”; to `COc1ccc(C(C(=O)NC2CCCCC2)N(C(=O)CCl)c2cccc(Cl)c2)cc1` (centres undefined), “inactive”; to `C=C(C)COc1ccc(-c2n[nH]c(C)c2Oc2ccccc2OC)c(O)c1`, “inactive”. For `COCCn1cnc2c(c1=O)c1nc3ccccc3nc1n2/N=C/c1cccc(OC)c1`, the IC50 result was “inactive”. In the case of `CCCCCn1c(SCCC(C)C)nc2c1c(=O)[nH]c(=O)n2C`, the IC50 entry is “inactive”. In the case of `C[C@H](NC(=O)c1[nH]cnc1C(=O)Nc1ccc(Cl)cc1)C(=O)OC(C)(C)C`, the IC50 result is “inactive”. To `O=C(Nc1ccc(Oc2ccccc2)cc1)C1CCN(c2c3c(nc4ncnn24)CCC3)CC1` belongs > 10 µM (inactive). As for `COc1ccccc1-n1cc([C@@H]2C[C@H]3CN(c4ccccc4)C(=O)[C@]34CCCN24)cn1`, the IC50 was 0.74 µM.

As to `Cc1cc(C)c2nc(C(F)(F)F)c(C#N)c(N)c2c1`, the IC50 was > 10 µM (inactive). As to `Cc1ccc(C(=O)N/C(=C\c2ccc(Br)cc2)c2nc(=S)[nH][nH]2)cc1`, the IC50 was > 10 µM (inactive). Consider `CCCC(NCC(O)COc1ccc(-c2ccccc2)cc1)c1ccccc1` (centres undefined), for which the IC50 result was “inactive”. To `N#CC(C#N)=C1C=CC=CN1/C(=C\c1ccccc1Cl)C(=O)c1ccccc1` belongs “inactive”; to `COc1cc(OC)cc(-c2nc3ccccc3c(=O)n2OC(=O)c2ccc(Br)cc2)c1`, > 10 µM (inactive); to `O=C(OCn1ncc(Cl)c(Cl)c1=O)c1cccc(C(F)(F)F)c1`, “inactive”. To `OC(CNCC1CCCO1)Cn1c2ccc(Br)cc2c2cc(Br)ccc21` (centres undefined) belongs > 10 µM (inactive); to `CC(C)COc1ccc(/C(=N/O)c2ccccc2)cc1`, “inactive”.

With `CCc1ccc(/C=C2\SC(=S)N(CCCC(=O)Nc3ccccn3)C2=O)cc1`, the half-inhibitory concentration (IC50) was < 0.16 µM. The same measure for `N#Cc1c(N)nc(SCC(=O)C23CC4CC(CC(C4)C2)C3)c(C#N)c1-c1ccc(Cl)cc1`: > 10 µM (inactive).

In the case of `O=[N+]([O-])c1ccc(/C=N/n2c(C3CCCCC3)n[nH]c2=S)cc1`, the IC50 is > 10 µM (inactive). Regarding `CCn1cc([N+](=O)[O-])c(C(=O)N2N=C(c3ccc(Cl)c(Cl)c3)CC2c2ccccc2O)n1` (centres undefined), the IC50 was > 10 µM (inactive). The same measure for `O=C(c1ccc(COc2ccc(Cl)cc2)o1)N1N=C(C(F)F)CC1(O)C(F)F` (centres undefined): “inactive”; for `Cc1ccc(-c2nc(-c3ccccn3)no2)cc1`: “inactive”; for `CC(=O)NCc1ccc(C(=O)CCl)s1`: “inactive”. For the compound `Cc1nn(CCC#N)c2nc(-c3ccccc3)cc(C(F)(F)F)c12`, the IC50 entry is “inactive”. Regarding `CCc1ccc(-c2cc(C(=O)N3N=C(C(F)F)CC3(O)C(F)F)c3ccccc3n2)cc1` (centres undefined), the IC50 entry was “inactive”. The same measure for `O=C(NNc1ccccc1Br)C(O)(c1cccc(C(F)(F)F)c1)c1cccc(C(F)(F)F)c1`: “inactive”; for `Nc1nc(-c2ccccc2)c(N=Nc2ccccc2Cl)s1`: “inactive”. Regarding `CC(C)C[C@H](NC(=O)OC(C)(C)C)c1nnc(SCC(=O)Nc2ccc(Br)cc2)o1`, the IC50 was 4.92 µM. For the compound `Cc1ccc(/C=C2\SC(=S)N(CCCC(=O)Nc3ccccn3)C2=O)cc1`, the IC50 was < 0.16 µM. The same measure for `CCOC(=O)N=Nc1c2ccccc2c2nc3no[nH]c3nc12`: “inactive”; for `CC(C)=CCCC1(C)C=Cc2c(c(C)cc3c2[nH]c2cc(O)ccc23)O1` (centres undefined): “inactive”; for `CCOc1ccc(C2C=C(c3ccc(C)cc3)Nc3nnnn32)cc1` (centres undefined): > 10 µM (inactive). The same measure for `Cc1cc(Cl)ccc1OCc1n[nH]c(=S)n1C1CCCCC1`: “inactive”; for `CCCOC(=O)c1ccc(Oc2c(-c3ccc(OCC)cc3O)n[nH]c2C)cc1`: “inactive”. The same measure for `Nc1ccc2oc(-c3cc(Br)ccc3Cl)nc2c1`: 0.39 µM; for `COc1ccc(NC(=S)NC(NC(=O)/C=C/c2ccccc2)C(Cl)(Cl)Cl)cc1` (centres undefined): > 10 µM (inactive). As to `COC(=O)c1sc(-c2ccc(C(C)(C)C)cc2)cc1NC(=O)c1ccccc1C(=O)O`, the IC50 is > 10 µM (inactive). For `O=C(OCn1ncc(Cl)c(Cl)c1=O)c1ccc(F)cc1`, the IC50 is 3.7 µM. To `Cc1ccc(COc2ccc(Br)cc2/C=N/O)cc1` belongs > 10 µM (inactive); to `C=C(C)C(=O)OC1(C(F)(F)F)Oc2cc(C)ccc2NC1=O` (centres undefined), “inactive”. The same measure for `Cc1ccc(N=Cc2cc3c(cc2O)OC(N)=C(C#N)C3c2ccccc2)cc1` (centres undefined): > 10 µM (inactive). To `O=C1c2ccccc2C(=O)c2c1oc(C(F)(F)F)c2C(=O)c1ccccc1` belongs “inactive”.
